Values after ≈ are worked out from the molar mass of the structure shown. Active and inactive are the calls of the source. No cut-off for these calls is given here. Where a SMILES comes first, the peptide text is derived from it.
Legend:
[1] = tested on: Escherichia coli; assay: Antibacterial activity against Escherichia coli ATCC 25922 assessed as polymyxin B MIC incubated for 24 hrs by microbroth dilution assay; assay type: functional
[2] = tested on: Staphylococcus aureus; assay: Antibacterial activity against Staphylococcus aureus ATCC BAA -1556 assessed as vancomycin MIC incubated for 24 hrs by microbroth dilution assay; assay type: functional
[3] = tested on: Escherichia coli; assay: Synergistic antibacterial activity against Escherichia coli ATCC 25922 assessed as fractional inhibitory concentration index incubated for 24 hrs in presence of vancomycin by checkerboard assay; assay type: functional
[4] = tested on: Klebsiella pneumoniae; assay: Synergistic antibacterial activity against Klebsiella pneumoniae ATCC BAA 1705 assessed as fractional inhibitory concentration index incubated for 24 hrs in presence of clindamycin by checkerboard assay; assay type: functional
[5] = tested on: Klebsiella pneumoniae; assay: Synergistic antibacterial activity against Klebsiella pneumoniae ATCC BAA 1705 assessed as fractional inhibitory concentration index incubated for 24 hrs in presence of daptomycin by checkerboard assay; assay type: functional
[6] = tested on: Escherichia coli; assay: Synergistic antibacterial activity against Escherichia coli ATCC 25922 assessed as fractional inhibitory concentration index incubated for 24 hrs in presence of tetracycline by checkerboard assay; assay type: functional
[7] = tested on: Klebsiella pneumoniae; assay: Antibacterial activity against Klebsiella pneumoniae ATCC BAA 1705 assessed as tetracycline MIC incubated for 24 hrs by microbroth dilution assay; assay type: functional
[8] = tested on: Klebsiella pneumoniae; assay: Synergistic antibacterial activity against Klebsiella pneumoniae ATCC BAA 1705 assessed as fractional inhibitory concentration index incubated for 24 hrs in presence of levofloxacin by checkerboard assay; assay type: functional
[9] = tested on: Klebsiella pneumoniae; assay: Antibacterial activity against Klebsiella pneumoniae ATCC BAA 1705 assessed as tobramycin MIC incubated for 24 hrs by microbroth dilution assay; assay type: functional
[10] = tested on: Escherichia coli; assay: Antibacterial activity against carbapenem and NDM-1 positive resistant Escherichia coli ATCC BAA 2452 assessed as reduction in microbial growth incubated for 24 hrs by microbroth dilution method; assay type: functional
[11] = tested on: Pseudomonas aeruginosa; assay: Bactericidal activity against Pseudomonas aeruginosa ATCC BAA 1744 assessed as reduction in colony formation at MIC measured after 18 hrs by Time kill assay; assay type: functional, organism-based
[12] = tested on: Klebsiella pneumoniae; assay: Bactericidal activity against Klebsiella pneumoniae ATCC BAA 1705 assessed as decrease in bacterial growth at MIC measured after 18 hrs by Time kill assay; assay type: functional, organism-based
[13] = tested on: Escherichia coli; assay: Synergistic antibacterial activity against Escherichia coli ATCC 25922 assessed as fractional inhibitory concentration index incubated for 24 hrs in presence of ciprofloxacin by checkerboard assay; assay type: functional
[14] = tested on: Klebsiella pneumoniae; assay: Antibacterial activity against Klebsiella pneumoniae ATCC BAA 1705 assessed as kanamycin MIC incubated for 24 hrs by microbroth dilution assay; assay type: functional
[15] = tested on: Pseudomonas aeruginosa; assay: Synergistic antibacterial activity against Pseudomonas aeruginosa ATCC 27883 assessed as fractional inhibitory concentration index incubated for 24 hrs in presence of levofloxacin by checkerboard assay; assay type: functional
[16] = tested on: Escherichia coli; assay: Synergistic antibacterial activity against Escherichia coli ATCC 25922 assessed as fractional inhibitory concentration index incubated for 24 hrs in presence of kanamycin by checkerboard assay; assay type: functional
[17] = tested on: Klebsiella pneumoniae; assay: Antibacterial activity against Klebsiella pneumoniae ATCC BAA 1705 assessed as ciprofloxacin MIC incubated for 24 hrs by microbroth dilution assay; assay type: functional
[18] = tested on: Staphylococcus aureus; assay: Synergistic antibacterial activity against methicillin resistant Staphylococcus aureus ATCC BAA -1556 assessed as fractional inhibitory concentration index incubated for 24 hrs in presence of tetracycline by checkerboard assay; assay type: functional
[19] = tested on: Escherichia coli; assay: Antibacterial activity against Escherichia coli ATCC 25922 assessed as vancomycin MIC incubated for 24 hrs by microbroth dilution assay; assay type: functional
[20] = tested on: Klebsiella pneumoniae; assay: Synergistic antibacterial activity against Klebsiella pneumoniae ATCC BAA 1705 assessed as fractional inhibitory concentration index incubated for 24 hrs in presence of tetracycline by checkerboard assay; assay type: functional
[21] = tested on: Klebsiella pneumoniae; assay: Synergistic antibacterial activity against Klebsiella pneumoniae ATCC BAA 1705 assessed as fractional inhibitory concentration index incubated for 24 hrs in presence of kanamycin by checkerboard assay; assay type: functional
[22] = tested on: Pseudomonas aeruginosa; assay: Synergistic antibacterial activity against Pseudomonas aeruginosa ATCC 27883 assessed as fractional inhibitory concentration index incubated for 24 hrs in presence of meropenem by checkerboard assay; assay type: functional
[23] = tested on: Pseudomonas aeruginosa; assay: Bactericidal activity against Pseudomonas aeruginosa ATCC BAA 1744 assessed as reduction in bacterial growth at MIC measured after 4 hrs by Time kill assay; assay type: functional, organism-based
[24] = Hemolytic activity in human Red blood cell incubated for 2 hrs by spectrophotometric analysis; assay type: toxicity, cell-based, Erythrocyte; details: red blood cells (erythrocytes)
[25] = tested on: Pseudomonas aeruginosa; assay: Antibacterial activity against Pseudomonas aeruginosa ATCC 27883 assessed as polymyxin B MIC incubated for 24 hrs by microbroth dilution assay; assay type: functional
[26] = tested on: Cell membrane; assay: Induction of membrane disruption in Staphylococcus aureus ATCC BAA -1556 assessed as increase in PI positive cells at MIC incubated for 2 hrs by Propidium iodide staining based FACS cytometry analysis relative to control
[27] = tested on: HepaRG; assay: Cytotoxicity against human HepaRG cells assessed as assessed as reduction in cell viability at 10 ug/ml incubated for 24 hrs by microplate reader analysis; assay type: toxicity, cell-based; details: dose 10 µg/ml
[28] = tested on: Pseudomonas aeruginosa; assay: Antibacterial activity against Pseudomonas aeruginosa ATCC 27883 assessed as ciprofloxacin MIC incubated for 24 hrs by microbroth dilution assay; assay type: functional
[29] = tested on: Staphylococcus aureus; assay: Bactericidal activity against methicillin resistant Staphylococcus aureus ATCC BAA 1556 assessed as reduction in bacterial viability at MIC measured after 4 hrs by Time kill assay; assay type: functional, organism-based
[30] = Cytotoxicity against HEK293 cells assessed as effect on cell viability at 10 to 25 ug/ml incubated for 24 hrs by microplate reader analysis relative to control; assay type: toxicity, cell-based; details: human, at 10 to 25 µg/mL, dose 10-25 µg/ml, read-out: Activity
[31] = tested on: Pseudomonas aeruginosa; assay: Synergistic antibacterial activity against Pseudomonas aeruginosa ATCC 27883 assessed as fractional inhibitory concentration index incubated for 24 hrs in presence of ciprofloxacin by checkerboard assay; assay type: functional
[32] = tested on: HEK293; assay: Cytotoxicity against HEK293 cells assessed as effect on cell viability at 10 ug/ml incubated for 24 hrs by microplate reader analysis; assay type: toxicity, cell-based; details: human, hek293, 24 h, dose 10 µg/ml
[33] = tested on: Staphylococcus aureus; assay: Synergistic antibacterial activity against methicillin resistant Staphylococcus aureus ATCC BAA -1556 assessed as fractional inhibitory concentration index incubated for 24 hrs in presence of vancomycin by checkerboard assay; assay type: functional
[34] = tested on: Cell membrane; assay: Induction of membrane disruption in Pseudomonas aeruginosa ATCC BAA 1744 assessed as increase in PI positive cells at MIC incubated for 2 hrs by Propidium iodide staining based FACS cytometry analysis relative to control
[35] = tested on: Escherichia coli; assay: Antibacterial activity against Escherichia coli ATCC 25922 assessed as kanamycin MIC incubated for 24 hrs by microbroth dilution assay; assay type: functional
[36] = tested on: Pseudomonas aeruginosa; assay: Synergistic antibacterial activity against Pseudomonas aeruginosa ATCC 27883 assessed as fractional inhibitory concentration index incubated for 24 hrs in presence of polymyxin B by checkerboard assay; assay type: functional
[37] = tested on: Staphylococcus aureus; assay: Antibacterial activity against Staphylococcus aureus ATCC BAA -1556 assessed clindamycin MIC incubated for 24 hrs by microbroth dilution assay; assay type: functional
[38] = tested on: Staphylococcus aureus; assay: Antibacterial activity against Staphylococcus aureus ATCC BAA -1556 assessed as levofloxacin MIC incubated for 24 hrs by microbroth dilution assay; assay type: functional
[39] = tested on: Pseudomonas aeruginosa; assay: Antibacterial activity against carbapenem resistant Pseudomonas aeruginosa ATCC BAA 1744 assessed as reduction in microbial growth incubated for 24 hrs by microbroth dilution method; assay type: functional

N=C(N)NCCC[C@@H]1NC(=O)[C@H](CCCNC(=N)N)NC(=O)[C@H](CCCNC(=N)N)NC(=O)[C@H](CCCNC(=N)N)NC(=O)[C@H](Cc2c[nH]c3ccccc23)NC(=O)[C@H](Cc2c[nH]c3ccccc23)NC(=O)[C@H](Cc2c[nH]c3ccccc23)NC(=O)[C@H](Cc2c[nH]c3ccccc23)NC(=O)[C@H](CCCCN)NC(=O)[C@H](CCCNC(=N)N)NC1=O (cyclo(KWWWWRRRRR))
MIC [1]: 0.125 µg/mL | MIC [2]: 0.25 µg/mL | fractional inhibitory concentration index (FICI) [3]: 0.5625 | fractional inhibitory concentration index (FICI) [4]: 0.257 | fractional inhibitory concentration index (FICI) [5]: 0.313 | fractional inhibitory concentration index (FICI) [6]: 0.5 | MIC [7]: 1 µg/mL | fractional inhibitory concentration index (FICI) [8]: 0.375 | MIC [9]: 2 µg/mL | MIC [10]: 16 µg/mL | Activity [11]: Active | Activity [12]: Active | fractional inhibitory concentration index (FICI) [13]: 0.625 | MIC [14]: 8 µg/mL | fractional inhibitory concentration index (FICI) [15]: 0.375 | fractional inhibitory concentration index (FICI) [16]: 0.375 | MIC [17]: 16 µg/mL | fractional inhibitory concentration index (FICI) [18]: 0.5 | MIC [19]: 16 µg/mL | fractional inhibitory concentration index (FICI) [20]: 0.3125 | fractional inhibitory concentration index (FICI) [21]: 0.375 | fractional inhibitory concentration index (FICI) [22]: 0.375 | Activity [23]: Active | HC50 at 2 h [24]: 320 µg/mL | MIC [25]: 0.125 µg/mL | Activity [26]: 48.2% | Activity [27]: Non-Toxic | MIC [28]: 0.125 µg/mL | Activity [29]: Active | viability at 24 h [30]: 86% | fractional inhibitory concentration index (FICI) [31]: 0.5 | Activity [32]: Non-Toxic | fractional inhibitory concentration index (FICI) [33]: 0.5 | Activity [34]: 39.9% | MIC [35]: 4 µg/mL | fractional inhibitory concentration index (FICI) [36]: 0.375 | MIC [37]: 0.031 µg/mL (≈ 0.0187 µM) | MIC [38]: 1 µg/mL | MIC [39]: 16 µg/mL

From ChEMBL document CHEMBL5154823, “Amphiphilic cyclic peptide [W4KR5]-Antibiotics combinations as broad-spectrum antimicrobial agents” (Eur J Med Chem, 2022)
